Measurements published in article PMC12005229, “Final results from the phase Ia/Ib study of the novel bromodomain and extra-terminal domain inhibitor, BI 894999, in patients with advanced solid tumors or diffuse large B-cell lymphoma” (ESMO Open, 2025).
Like-named read-outs stand apart in the source and are kept apart here.

Key:
patients with DLBCL = assay: phase Ia DLBCL extension: tumor response (RECIL 2017); format: in vivo, human
Description: PFS was measured for the period from the start of treatment to the occurrence of progressive disease or death. Tumor response was measured using RECIST 1.1[28] for patients with solid tumors and RECIL 2017[29] for those with DLBCL. OS was assessed in patients with NUT carcinoma; the OS status was to continue until 12 months after the end of the study.
Supplementary Table 1. […]
• Objective response (OR), defined as complete response (CR) or partial response (PR) with tumor assessment during treatment period for each schedule according to Response Evaluation Criteria in Solid Tumors (RECIST) version 1.1. For DLBCL patients, a minor response according to Response Evaluation Criteria in Lymphoma (RECIL) 2017 was not part of an OR […]
• Progression-free survival (PFS), defined from date of start of BI 894999 to the date of objective disease progression or death, whichever was earlier, with tumor assessment every 2 cycles (every 6 weeks for Schedule B if no delays or as close as possible to the end of the second of the 2 cycles of treatment if there was a delay) during the treatment period […]
AUC0–24, area under the plasma concentration–time curve over the 24-hour dosing interval; AUCτ, ss , area under the plasma concentration–time curve over the dosing interval τ at steady state; AE, adverse event; Cmax, maximal exposure; Cma x , s s , maximal exposure at steady state; DLBCL, diffuse large B- cell lymphoma; DLT, dose-limiting toxicity; mCRPC, metastatic castration-resistant prostate cancer; NUT, nuclear protein in […]

[1] = system: patients with solid tumors; set-up: method as in PMID 37556913; settings: cited from earlier work; for maximum tolerated dose (MTD): solid tumors
[2] = system: nuclear protein in testis (NUT) carcinoma xenograft models; set-up: method as in PMID 35444289; settings: cited from earlier work
[3] = review of non-Good Laboratory Practice preclinical assays for cardiac toxicity; settings: review prompted by elevated troponin T
From the text: Some patients experienced elevated troponin T levels, leading to a review of troponin T levels, electrocardiogram data, clinical summaries, and non-Good Laboratory Practice preclinical assays. […] This also corresponded with a lack of cardiotoxicity reported in preclinical studies in animals[17] and this was not a toxicity previously reported with BET inhibitors.[35] It was concluded that the cause of troponin T elevation may be multifactorial, but not clinically significant to preclude further clinical development.[17]

BRD4-BD1 = system: BRD4-BD1; set-up: method as in PMID 35444289; settings: read-out: IC50, inhibition of interaction of acetylated histone H4-derived peptide with BRD4-BD1; cited from earlier work
[4] = plasma pharmacokinetics, LC-MS/MS, noncompartmental analysis; format: in vivo, human; settings: for Tmax / AUC(0-t) / Cmax: human, plasma, oral
Description: Samples were collected for PK analysis in cycle 1: 5 min pre-dose, 30 min, 1, 2, 3, 4, 6, and 8 h after drug administration on day 1 (schedules B and C) and on day 14 (for schedule B) or day 21 (for schedule C); 5 min pre-dose on days 8 and 12 (for schedule B) and at time of the visit on day 8 (168 h) for schedule C; 5 min pre-dose on day 18 (at time of the visit) for schedule B; and on day 22 (504 and 512 h) and day 29 (at time of the visit) for schedule C. For schedule B, a few additional samples were also taken in cycle 2: 5 min pre-dose, 2, 4, and 8 h on day 1, and 5 min pre-dose on day 2.
BI 894999 plasma concentrations were determined using a validated assay based on liquid chromatography coupled with tandem mass spectrometry. PK parameters were determined by noncompartmental analysis using the Phoenix WinNonlin software (Phoenix 6.3, Certara USA Inc., Princeton, NJ).

Compound: CNc1nc(-c2nc3ccc(N4CCN(C)CC4)cc3n2Cc2ccccc2)cn2c(C)nnc12 [BI 894999]
- patients not assessable (patients with DLBCL; phase Ia DLBCL n = 18): 27.8%
- patients with partial response (BOR) (patients with DLBCL; phase Ia DLBCL n = 18): 5.6%
- patients with progressive disease (patients with DLBCL; phase Ia DLBCL n = 18): 50.0%
- patients with stable disease (patients with DLBCL; phase Ia DLBCL n = 18): 16.7%
- duration of response (DOR) of confirmed PR (patients with DLBCL; phase Ia DLBCL, one patient): 49 days
- Best overall response: complete response (patients with DLBCL; phase Ia DLBCL, schedule B): 0 (0.0) n (%)
- Best overall response: not evaluable (patients with DLBCL; phase Ia DLBCL, schedule B): 5 (35.7) n (%)
- Best overall response: partial response (patients with DLBCL; phase Ia DLBCL, schedule B): 1 (7.1) n (%)
- Best overall response: progressive disease (patients with DLBCL; phase Ia DLBCL, schedule B): 6 (42.9) n (%)
- Best overall response: stable disease (patients with DLBCL; phase Ia DLBCL, schedule B): 2 (14.3) n (%)
- Disease control (patients with DLBCL; phase Ia DLBCL, schedule B): 3 (21.4) n (%)
- Objective response (patients with DLBCL; phase Ia DLBCL, schedule B): 1 (7.1) n (%)
- Best overall response: complete response (patients with DLBCL; phase Ia DLBCL, schedule C): 0 (0.0) n (%)
- Best overall response: not evaluable (patients with DLBCL; phase Ia DLBCL, schedule C): 0 (0.0) n (%)
- Best overall response: partial response (patients with DLBCL; phase Ia DLBCL, schedule C): 0 (0.0) n (%)
- Best overall response: progressive disease (patients with DLBCL; phase Ia DLBCL, schedule C): 3 (75.0) n (%)
- Best overall response: stable disease (patients with DLBCL; phase Ia DLBCL, schedule C): 1 (25.0) n (%)
- Disease control (patients with DLBCL; phase Ia DLBCL, schedule C): 1 (25.0) n (%)
- Best overall response: complete response (patients with DLBCL; phase Ia DLBCL, total): 0 (0.0) n (%)
- Best overall response: not evaluable (patients with DLBCL; phase Ia DLBCL, total): 5 (27.8) n (%)
- Best overall response: partial response (patients with DLBCL; phase Ia DLBCL, total): 1 (5.6) n (%)
- Best overall response: progressive disease (patients with DLBCL; phase Ia DLBCL, total): 9 (50.0) n (%)
- Best overall response: stable disease (patients with DLBCL; phase Ia DLBCL, total): 3 (16.7) n (%)
- Disease control (patients with DLBCL; phase Ia DLBCL, total): 4 (22.2) n (%)
- Objective response (patients with DLBCL; phase Ia DLBCL, total): 1 (5.6) n (%)
- disease control (CR, PR or SD) ([1]; initial phase Ia, investigator's assessment): 26.0%
- best response PR ([1]; initial phase Ia): 3.9%
- patients with grade ≥3 DLTs ([1]; initial phase Ia): 22 of 77
- maximum tolerated dose (MTD) ([1]; schedule A (days 1-21 of 3-week cycle)): 1.5 mg
- maximum tolerated dose (MTD) ([1]; schedule B (days 1-14 of 3-week cycle)): 2.5 mg
- effect in NUT carcinoma xenograft models [2]: tumor regressions
- preclinical evidence of cardiac toxicity [3]: no preclinical evidence of potential cardiac toxicity
- IC50 (BRD4-BD1): 5 ± 3 nM
- Tmax ([4]; 1.5 mg, phase Ia DLBCL, schedule B 1.5 mg, day 1, read-out: tmax median): 2.02 h
- Tmax ([4]; 1.5 mg, phase Ia DLBCL, schedule B 1.5 mg, day 14, read-out: tmax,ss median): 2.56 h
- Tmax ([4]; 2 mg, phase Ia DLBCL, schedule B 2.0 mg, day 1, read-out: tmax median): 2.01 h
- AUC(0-t) ([4]; 2 mg, phase Ia DLBCL, schedule B 2.0 mg, day 14, read-out: AUC0–24,ss gMean (gCV, %)): 0.12 µM·h
- Tmax ([4]; 2 mg, phase Ia DLBCL, schedule B 2.0 mg, day 14, read-out: tmax,ss median): 2.12 h
- Tmax ([4]; 2 mg, phase Ib solid tumors, schedule B 2.0 mg, day 1, read-out: tmax median): 2 h
- Tmax ([4]; 2 mg, phase Ib solid tumors, schedule B 2.0 mg, day 14, read-out: tmax,ss median): 2 h
- AUC(0-t) ([4]; 2.5 mg, phase Ia DLBCL, schedule B 2.5 mg, day 1, read-out: AUC0–24 gMean (gCV, %)): 0.0533 µM·h
- Tmax ([4]; 2.5 mg, phase Ia DLBCL, schedule B 2.5 mg, day 1, read-out: tmax median): 2.04 h
- Tmax ([4]; 2.5 mg, phase Ib, schedule B 2.5 mg including NUT carcinoma, day 1, read-out: tmax median): 2.01 h
- AUC(0-t) ([4]; 2.5 mg, phase Ib, schedule B 2.5 mg including NUT carcinoma, day 14, read-out: AUC0–24,ss gMean (gCV, %)): 0.125 µM·h
- Tmax ([4]; 2.5 mg, phase Ib, schedule B 2.5 mg including NUT carcinoma, day 14, read-out: tmax,ss median): 2 h
- AUC(0-t) ([4]; 4 mg, phase Ia DLBCL, schedule C 4.0/2.0 mg, day 1 after loading dose, read-out: AUC0–24 gMean (gCV, %)): 0.138 µM·h
- Tmax ([4]; 4 mg, phase Ia DLBCL, schedule C 4.0/2.0 mg, day 1 after loading dose, read-out: tmax median): 2 h
- AUC(0-t) ([4]; 6 mg, phase Ib, schedule C 6.0/3.0 mg NUT carcinoma only, day 1 after loading dose, read-out: AUC0–24 gMean (gCV, %)): 0.214 µM·h
- Tmax ([4]; 6 mg, phase Ib, schedule C 6.0/3.0 mg NUT carcinoma only, day 1 after loading dose, read-out: tmax median): 2 h
- AUC(0-t) ([4]; phase Ib, schedule C 6.0/3.0 mg NUT carcinoma only, day 21, read-out: AUC0–24,ss gMean (gCV, %)): 0.149 µM·h
- Tmax ([4]; phase Ib, schedule C 6.0/3.0 mg NUT carcinoma only, day 21, read-out: tmax,ss median): 2.05 h
- Tmax ([4]; single dose day 1 and once-daily multiple doses days 14 or 21, read-out: median time to maximum plasma concentration (tmax)): ~2 h
- Cmax ([4]; phase Ia DLBCL, schedule B 2.0 mg, day 14, read-out: Cmax,ss gMean (gCV, %)): 7.67 nM
- Cmax ([4]; phase Ia DLBCL, schedule B 2.5 mg, day 1, read-out: Cmax gMean (gCV, %)): 4.75 nM
- dose dependence of plasma concentrations ([4]; within a dosing schedule and indication): increased with increasing dose
